The values that follow come from patent US20260217686A1, “N-Myristoyltransferase Inhibitors And Methods Of Use” (Seattle Children's Hospital (d/b/a Seattle Children's …, priority 2022, published 2026).

One assay has as its target T1, PvNMT (Plasmodium vivax, UniProt A5K1A2).
T1 construct: Gly-Pro stays on the protein after cleavage) (N, cleaved yes); host or cells: E. coli Rosetta 2 (DE3) pRARE
Kind of assay: biochemical. Particulars: for SI**: enzyme selectivity calculated as HsNMT IC50/PvNMT IC50. It is filed as biochemical. From the text:
NMT activity was indirectly measured through the detection of free CoA by the thiol-reactive probe 7-diethylamino-3-(4′-maleimidylphenyl)-4-methylcoumarin (CPM).
This study aimed to identify NMT is with high selectivity for the P. vivax enzyme compared with human NMTs and high potency against the different stages of the P. vivax parasite. For this purpose, a structure-guided approach was applied using previously reported NMT inhibitors as scaffolds to develop a new generation of PvNMT-targeting compounds. The NMT activity of these inhibitors was first measured using biochemical assays through the detection of free CoA by the thiol-reactive probe 7-diethylamino-3-(4′-maleimidylphenyl)-4-methylcoumarin (CPM). Their antiparasitic activity were further evaluated by measuring blood-stage parasite load and inhibition of P. vivax liver-stage schizont and hypnozoite infection. […] Cytotoxicity was assessed in the human hepatoma HepG2 cell line. Synchronized P. falciparum NF54 ring-stage parasites were used for measuring blood-stage parasite load. […] In vitro experiments were repeated at least twice. A single concentration of each inhibitor was initially used to evaluate the inhibition of P. vivax liver stage schizont and hypnozoite infection, followed by the determination of the dose-response relationship.
To measure the activity of the purified PvNMT an assay was adapted from the literature. […] Working stock solutions were made fresh adding DMSO for final concentrations of either 1% or 5% DMSO. […] The plate was incubated for 30 min at room temperature. The enzymatic reaction was initiated by adding 50 μL of reaction substrate containing 10 µM myrCoA and PfARF, as well as 8 μM CPM. Fluorescent readings were taken on a Spectra M2 plate reader (Molecular Devices) with excitation at 385 nm and emission at 485 nm. Fluorescent intensity was measured continuously in one-minute intervals for 45 minutes. Background fluorescence and noise were determined by replacing each constituent of the reaction individually with assay buffer containing 1% DMSO and values were deducted from experimental samples. The enzymatic reactions were set up with varying pHs (6.0-8.5) of the assay buffer to determine optimal reaction conditions with minimal background and off target reactions. In lieu of compound, 10 μL of 10% DMSO/H2O was added to each well. Fluorescence signal was obtained continuously for 45 min. […] IC50 calculations were calculated using Prism (GraphPad Software, Inc).

In the next assay the target is T2, HsNMT1 (Homo sapiens, UniProt P30419).
T2 construct: made in house
T2 sequence (P30419 1-496): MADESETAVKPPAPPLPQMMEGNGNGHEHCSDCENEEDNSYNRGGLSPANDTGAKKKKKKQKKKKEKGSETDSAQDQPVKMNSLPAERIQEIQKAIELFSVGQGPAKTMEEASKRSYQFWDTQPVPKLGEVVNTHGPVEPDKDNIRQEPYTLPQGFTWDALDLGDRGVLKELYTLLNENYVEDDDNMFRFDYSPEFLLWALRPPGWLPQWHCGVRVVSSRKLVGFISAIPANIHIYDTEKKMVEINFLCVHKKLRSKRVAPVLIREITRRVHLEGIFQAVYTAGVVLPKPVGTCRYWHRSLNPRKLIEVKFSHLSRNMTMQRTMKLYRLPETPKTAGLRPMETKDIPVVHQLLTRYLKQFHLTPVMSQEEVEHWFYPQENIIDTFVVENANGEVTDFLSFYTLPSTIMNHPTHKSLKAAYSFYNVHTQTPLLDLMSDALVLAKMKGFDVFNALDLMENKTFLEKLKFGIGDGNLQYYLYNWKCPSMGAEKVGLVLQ
In words: NMT activity assay (CPM detection of free CoA), human NMT. Particulars: Table 1; mean values of two or more determinations; read-out: HsNMT IC50 (nM)*. The format is biochemical.

The mark [1] stands for this setting: Table 1, mean values of two or more determinations.

T1 sequence (A5K1A2 entry or part of it): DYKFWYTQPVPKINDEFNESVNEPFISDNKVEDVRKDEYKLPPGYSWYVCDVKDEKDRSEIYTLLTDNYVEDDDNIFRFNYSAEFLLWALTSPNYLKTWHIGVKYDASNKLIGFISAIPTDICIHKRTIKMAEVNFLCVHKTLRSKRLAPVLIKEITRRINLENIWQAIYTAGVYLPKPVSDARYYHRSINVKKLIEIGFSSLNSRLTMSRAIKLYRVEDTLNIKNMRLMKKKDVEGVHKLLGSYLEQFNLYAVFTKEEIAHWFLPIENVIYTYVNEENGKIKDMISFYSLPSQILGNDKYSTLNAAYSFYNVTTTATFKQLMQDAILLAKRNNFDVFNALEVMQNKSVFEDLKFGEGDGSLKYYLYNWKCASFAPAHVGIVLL

Broadly, the IC50 is the concentration that inhibits the measured activity by half. On to “3-(2′-(3,5-dimethyl-1H-pyrazol-4-yl)ethoxy-4′-fluoro-[1,1′-biphenyl]-3-yl)piperazine [Compound 12p]”, for which the “SI**” value at PvNMT (Table 1) is given as 62.7. For the same molecule, the IC50 at PvNMT (setting [1]) came out at 368 nM; at HsNMT1 it was 23100 nM.
Taken in the same sequence, the figures for `Cc1nn(C)c(C)c1CCOc1cccnc1-c1ccnc(N2CCNCC2)c1` [Compound 12a, 2′-(piperazin-1-yl)-3-(2-(1,3,5-trimethyl-1H-pyrazol-4-yl)ethoxy)-2,4′-bipyridine] were 146.7, 36.8 nM and 5400 nM.
Consider `Cc1nn(C)c(C)c1CCOc1cccnc1-c1cccc(N2CCNCC2)c1` [Compound 12b, 1-(3-(3-(2-(1,3,5-trimethyl-1H-pyrazol-4-yl)ethoxy)pyridin-2-yl)phenyl)piperazine], for which the IC50 came out at 80.2 nM at PvNMT (setting [1]) and 20800 nM on HsNMT1.
Turning to `Cc1nn(C)c(C)c1CCOc1ccccc1-c1ccnc(N2CCNCC2)c1` [Compound 12c, 1-(4-(2-(2-(1,3,5-trimethyl-1H-pyrazol-4-yl)ethoxy)phenyl)pyridin-2-yl)piperazine], the “SI**” value on PvNMT (Table 1) was 63.1. The half-maximal inhibitory concentration (IC50) against PvNMT (setting [1]) is 9.48 nM; at HsNMT1, 599 nM.
Take `Cc1nn(C)c(C)c1CCOc1ccccc1-c1cccc(N2CCNCC2)c1` [Compound 12d, 1-(2′-(2-(1,3,5-trimethyl-1H-pyrazol-4-yl)ethoxy)-[1,1′-biphenyl]-3-yl)piperazine]: the “SI**” value at PvNMT (Table 1) was 153.4. Further, the IC50 was found to be 48.5 nM at PvNMT (setting [1]) and 7440 nM at HsNMT1.
In the case of `Cc1nn(C)c(C)c1CCOc1cc(F)ccc1-c1ccnc(N2CCNCC2)c1` [Compound 12e, 1-(4-(4-fluoro-2-(2-(1,3,5-trimethyl-1H-pyrazol-4-yl)ethoxy)phenyl)pyridin-2-yl)piperazine], the “SI**” value on PvNMT (Table 1) is listed as 7.8. Also, the IC50 at PvNMT (setting [1]) was determined as 15.8 nM; at HsNMT1, 124 nM.
With `Cc1nn(C)c(C)c1CCOc1cc(F)ccc1-c1cccc(N2CCNCC2)c1` [Compound 12f, 1-(4′-fluoro-2′-(2-(1,3,5-trimethyl-1H-pyrazol-4-yl)ethoxy)-[1,1′-biphenyl]-3-yl)piperazine], at PvNMT (Table 1), the “SI**” value is 43.9. The IC50 on PvNMT (setting [1]) turned out to be 15.9 nM; on HsNMT1, 699 nM.
`c1cncc(CCOc2cccnc2-c2cccc(N3CCNCC3)c2)c1` [Compound 12g, 1-(3-(3-(2-(pyridin-3-yl)ethoxy)pyridin-2-yl)phenyl)piperazine]: on PvNMT (Table 1), the “SI**” value is on record as 152.8. The values for the IC50 on PvNMT (setting [1]) and at HsNMT1 were 104 nM and 15900 nM, respectively.
For `c1cncc(CCOc2cccnc2-c2ccnc(N3CCNCC3)c2)c1` [Compound 12h, 2′-(piperazin-1-yl)-3-(2-(pyridin-3-yl)ethoxy)-2,4′-bipyridine], the “SI**” value at PvNMT (Table 1) is given as 90.9. In addition, the IC50 against PvNMT (setting [1]) is 441 nM; on HsNMT1, above 40000 nM.
At PvNMT (setting [1]), `c1cncc(CCOc2ccccc2-c2cccc(N3CCNCC3)c2)c1` [Compound 12i, 1-(2′-(2-(pyridin-3-yl)ethoxy)-[1,1′-biphenyl]-3-yl)piperazine] yielded an IC50 of 1540 nM.
As to `c1cncc(CCOc2ccccc2-c2ccnc(N3CCNCC3)c2)c1` [Compound 12j, 1-(4-(2-(2-(pyridin-3-yl)ethoxy)phenyl)pyridin-2-yl)piperazine], at PvNMT (Table 1), the “SI**” value is on record as 220.6. Also, the IC50 came out at 124 nM at PvNMT (setting [1]) and 27400 nM on HsNMT1.
In turn, `Fc1ccc(-c2cccc(N3CCNCC3)c2)c(OCCc2cccnc2)c1` [Compound 12k, 1-(4′-fluoro-2′-(2-(pyridin-3-yl)ethoxy)-[1,1′-biphenyl]-3-yl)piperazine] had an IC50 against PvNMT (setting [1]) of 3120 nM.
As for `Fc1ccc(-c2ccnc(N3CCNCC3)c2)c(OCCc2cccnc2)c1` [Compound 12l, 1-(4-(4-fluoro-2-(2-(pyridin-3-yl)ethoxy)phenyl)pyridin-2-yl)piperazine], the “SI**” value on PvNMT (Table 1) is on record as 73. The IC50 against PvNMT (setting [1]) turned out to be 23.4 nM; on HsNMT1 it was 1710 nM.
Molecule `Cc1n[nH]c(C)c1CCOc1cccnc1-c1cccc(N2CCNCC2)c1` [Compound 12m, 1-(3-(3-(2-(3,5-dimethyl-1H-pyrazol-4-yl)ethoxy)pyridin-2-yl)phenyl)piperazine] gave an IC50 against PvNMT (setting [1]) of 12500 nM.
At PvNMT (setting [1]), `Cc1n[nH]c(C)c1CCOc1cccnc1-c1ccnc(N2CCNCC2)c1` [Compound 12o] came in with an IC50 of 3120 nM.
With `Cc1nn(C)c(C)c1CCOc1ccccc1-c1cc(N2CCNCC2)ncn1` [Compound 16a, 4-(piperazin-1-yl)-6-(2-(2-(1,3,5-trimethyl-1H-pyrazol-4-yl)ethoxy)phenyl)pyrimidine], at PvNMT (setting [1]), it took 9390 nM to reach half-maximal inhibition (IC50).
`c1cncc(CCOc2ccccc2-c2cc(N3CCNCC3)ncn2)c1` [Compound 16c, 4-(piperazin-1-yl)-6-(2-(2-(pyridine-3-yl)ethoxy)phenyl)pyrimidine] registered an IC50 at PvNMT (setting [1]) above 40000 nM.
`Fc1ccc(-c2cc(N3CCNCC3)ncn2)c(OCCc2cccnc2)c1` [Compound 16d, 4-(4-fluoro-2-(2-(pyridine-3-yl)ethoxy)phenyl)-6-(piperazin-1-yl)pyrimidine] yielded an IC50 against PvNMT (setting [1]) of 3390 nM.
The same measure, in the same setting: as for `Cc1n[nH]c(C)c1CCOc1cc(F)ccc1-c1cc(N2CCNCC2)ncn1` [Compound 16e, 4-(2-(2-(3,5-dimethyl-1H-pyrazol-4-yl)ethoxy)-4-fluorophenyl)-6-(piperazin-1-yl)pyrimidine], the figure is 5070 nM; as for `Cc1n[nH]c(C)c1CCOc1ccccc1-c1cc(N2CCNCC2)ncn1` [Compound 16f, 4-(2-(2-(3,5-dimethyl-1H-pyrazol-4-yl)ethoxy)phenyl)-6-(piperazin-1-yl)pyrimidine], 14000 nM.
Consider `CN(C)CCOc1cccc(-c2ncccc2OCCc2cccnc2)c1` [Compound 26d, N,N-dimethyl-2-(3-(3-(2-(pyridin-3-yl)ethoxy)pyridin-2-yl)phenoxy)ethan-1-amine], for which the IC50 against PvNMT (Table 2) was determined as 14800 nM.
The same measure, in the same setting: as for `CN(C)CCOc1cccc(-c2ccccc2OCCc2cccnc2)c1` [Compound 26e, N,N-dimethyl-2-((2′-(2-(pyridin-3-yl)ethoxy)-[1,1′-biphenyl]-3-yl)oxy)ethan-1-amine], the figure is 12800 nM; as for `Cc1n[nH]c(C)c1CCOc1cccnc1-c1cccc(OCCN(C)C)c1` [Compound 26g, 2-(3-(3-(2-(3,5-dimethyl-1H-pyrazol-4-yl)ethoxy)pyridin-2-yl)phenoxy)-N,N-dimethylethan-1-amine], 19400 nM; as for `Cc1n[nH]c(C)c1CCOc1ccccc1-c1cccc(OCCN(C)C)c1` [Compound 26h, 2-((2′-(2-(3,5-dimethyl-1H-pyrazol-4-yl)ethoxy)-[1,1′-biphenyl]-3-yl)oxy)-N,N-dimethylethan-1-amine], 1560 nM.
Molecule `Cc1nn(C)c(C)c1CCOc1ccc2ccccc2c1-c1cccc(OCCN(C)C)c1` [Compound 30b, N,N-dimethyl-2-(3-(2-(2-(1,3,5-trimethyl-1H-pyrazol-4-yl)ethoxy)naphthalen-1-yl)phenoxy)ethan-1-amine] registered an IC50 on PvNMT (Table 2) of 19800 nM.
On PvNMT (Table 2), `CN(C)CCOc1cccc(-c2c(OCCc3cccnc3)ccc3ccccc23)c1` [Compound 30d, N,N-dimethyl-2-(3-(2-(2-(pyridin-3-yl)ethoxy)naphthalen-1-yl)phenoxy)ethan-1-amine] yielded an IC50 of 7210 nM.
As for `Cc1n[nH]c(C)c1CCOc1ccc2ccccc2c1-c1ccnc(N2CCNCC2)c1` [Compound 30e, 1-(4-(2-(2-(3,5-dimethyl-1H-pyrazol-4-yl)ethoxy)naphthalen-1-yl)pyridin-2-yl)piperazine], on PvNMT (Table 2), half-maximal inhibition (IC50) required 2880 nM.
The same measure, in the same setting: as for `Cc1n[nH]c(C)c1CCOc1ccc2ccccc2c1-c1cccc(OCCN(C)C)c1` [Compound 30f, 2-(3-(2-(2-(3,5-dimethyl-1H-pyrazol-4-yl)ethoxy)naphthalen-1-yl)phenoxy)-N,N-dimethylethan-1-amine], the figure is 25400 nM.
